According to PubChem BioAssay (NCI):
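Compound exposure: 48 hours, 5 concentrations, 96-well plates. GI50 = concentration required for 50% inhibition of growth. TGI denotes the concentration required for complete inhibition of growth.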

Experiments:
Test in all cases: NCI tumour cell line growth inhibition, 48 h
[1] = system: 786-0 renal
[2] = system: A498 renal
[3] = system: A549 NSCLC
[4] = system: ACHN renal
[5] = system: BT-549 breast
[6] = system: CAKI-1 renal
[7] = system: CCRF-CEM leukemia
[8] = system: COLO 205 colon
[9] = system: DU-145 prostate
[10] = system: HCC-2998 colon
[11] = system: HCT-116 colon
[12] = system: HCT-15 colon
[13] = system: HL-60(TB) leukemia
[14] = system: HOP-62 NSCLC
[15] = system: HOP-92 NSCLC
[16] = system: HS 578T breast
[17] = system: HT29 colon
[18] = system: IGROV1 ovarian
[19] = system: K-562 leukemia
[20] = system: KM12 colon
[21] = system: LOX IMVI melanoma
[22] = system: M14 melanoma
[23] = system: MALME-3M melanoma
[24] = system: MCF7 breast
[25] = system: MDA-MB-231 breast
[26] = system: MDA-MB-435
[27] = system: MOLT-4 leukemia
[28] = system: NCI-H226 lung
[29] = system: NCI-H23 lung
[30] = system: NCI-H460 lung
[31] = system: NCI-H522 lung
[32] = system: NCI/ADR-RES ovarian
[33] = system: OVCAR-3 ovarian
[34] = system: OVCAR-4 ovarian
[35] = system: OVCAR-5 ovarian
[36] = system: OVCAR-8 ovarian
[37] = system: PC-3 prostate
[38] = system: RPMI-8226 leukemia
[39] = system: RXF 393 renal
[40] = system: SF-268 CNS
[41] = system: SF-295 CNS
[42] = system: SF-539 CNS
[43] = system: SK-MEL-2 melanoma
[44] = system: SK-MEL-28 melanoma
[45] = system: SK-MEL-5 melanoma
[46] = system: SK-OV-3 ovarian
[47] = system: SN12C renal
[48] = system: SNB-19 CNS
[49] = system: SNB-75 CNS
[50] = system: SR leukemia
[51] = system: SW-620 colon
[52] = system: T-47D breast
[53] = system: TK-10 renal
[54] = system: U251 CNS
[55] = system: UACC-257 melanoma
[56] = system: UACC-62 melanoma
[57] = system: UO-31 renal

## O=C(Nc1cccc(-n2cc(-c3ccncc3)c(-c3ccc(Cl)c(O)c3)n2)c1)Nc1ccc(Cl)c(C(F)(F)F)c1
[1]
  GI50: 1020 nM
  TGI: 8250 nM
[2]
  GI50: 1240 nM
  TGI: 7930 nM
[3]
  GI50: 914 nM
  TGI: 4070 nM
[4]
  GI50: 890 nM
  TGI: 32500 nM
[5]
  GI50: 1160 nM
  TGI: 5360 nM
[6]
  GI50: 726 nM
  TGI: 2300 nM
[7]
  GI50: 719 nM
  TGI: 2700 nM
[8]
  GI50: 2230 nM
  TGI: 6730 nM
[9]
  GI50: 1160 nM
  TGI: 4510 nM
[10]
  GI50: 1390 nM
  TGI: 6230 nM
[11]
  GI50: 938 nM
  TGI: 3630 nM
[12]
  GI50: 949 nM
  TGI: 10300 nM
[13]
  GI50: 1230 nM
  TGI: 8990 nM
[14]
  GI50: 1040 nM
  TGI: 4750 nM
[15]
  GI50: 310 nM
  TGI: 1290 nM
[16]
  GI50: 1050 nM
  TGI: 15700 nM
[17]
  GI50: 2050 nM
  TGI: 7110 nM
[18]
  GI50: 770 nM
  TGI: 2430 nM
[19]
  GI50: 768 nM
  TGI: 9360 nM
[20]
  GI50: 910 nM
  TGI: 3430 nM
[21]
  GI50: 554 nM
  TGI: 1150 nM
[22]
  GI50: 805 nM
  TGI: 2300 nM
[23]
  GI50: 557 nM
  TGI: 1580 nM
[24]
  GI50: 663 nM
  TGI: 32500 nM
[25]
  GI50: 538 nM
  TGI: 1480 nM
[26]
  GI50: 640 nM
  TGI: 1660 nM
[27]
  GI50: 777 nM
  TGI: 2930 nM
[28]
  GI50: 1330 nM
  TGI: 14600 nM
[29]
  GI50: 1040 nM
  TGI: 4000 nM
[30]
  GI50: 963 nM
  TGI: 3690 nM
[31]
  GI50: 643 nM
  TGI: 2190 nM
[32]
  GI50: 1010 nM
  TGI: 9460 nM
[33]
  GI50: 658 nM
  TGI: 1950 nM
[34]
  GI50: 1120 nM
  TGI: 27200 nM
[35]
  GI50: 1710 nM
  TGI: 12300 nM
[36]
  GI50: 759 nM
  TGI: 2280 nM
[37]
  GI50: 533 nM
  TGI: 2110 nM
[38]
  GI50: 487 nM
  TGI: 1670 nM
[39]
  GI50: 557 nM
  TGI: 1670 nM
[40]
  GI50: 1110 nM
  TGI: 6650 nM
[41]
  GI50: 656 nM
  TGI: 1710 nM
[42]
  GI50: 730 nM
  TGI: 2200 nM
[43]
  GI50: 784 nM
  TGI: 1680 nM
[44]
  GI50: 928 nM
  TGI: 3210 nM
[45]
  GI50: 528 nM
  TGI: 1040 nM
[46]
  GI50: 1270 nM
  TGI: 9730 nM
[47]
  GI50: 1050 nM
  TGI: 10300 nM
[48]
  GI50: 1170 nM
  TGI: 5310 nM
[49]
  GI50: 514 nM
  TGI: 5050 nM
[50]
  GI50: 663 nM
  TGI: 2050 nM
[51]
  GI50: 1070 nM
  TGI: 3770 nM
[52]
  GI50: 911 nM
  TGI: 9010 nM
[53]
  GI50: 1330 nM
  TGI: 7520 nM
[54]
  GI50: 542 nM
  TGI: 1270 nM
[55]
  GI50: 705 nM
  TGI: 1880 nM
[56]
  GI50: 609 nM
  TGI: 1470 nM
[57]
  GI50: 738 nM
  TGI: 2590 nM

## CCOC(=O)N1C/C(=C/c2ccc(F)cc2)C(=O)/C(=C/c2ccc(F)cc2)C1
[1]
  GI50: 1690 nM
  TGI: 3620 nM
[2]
  GI50: 2160 nM
  TGI: 5120 nM
[3]
  GI50: 2640 nM
  TGI: 8650 nM
[4]
  GI50: 1860 nM
  TGI: 3420 nM
[5]
  GI50: 1650 nM
  TGI: 3090 nM
[6]
  GI50: 3010 nM
  TGI: 12100 nM
[7]
  GI50: 758 nM
  TGI: 5640 nM
[8]
  GI50: 1920 nM
  TGI: 3540 nM
[9]
  GI50: 3480 nM
  TGI: 10900 nM
[10]
  GI50: 1840 nM
  TGI: 3290 nM
[11]
  GI50: 205 nM
  TGI: 397 nM
[12]
  GI50: 1160 nM
  TGI: 3020 nM
[13]
  GI50: 3180 nM
  TGI: 10600 nM
[14]
  GI50: 2100 nM
  TGI: 4240 nM
[15]
  GI50: 1650 nM
  TGI: 4640 nM
[16]
  GI50: 3130 nM
  TGI: 29000 nM
[17]
  GI50: 363 nM
  TGI: 1370 nM
[18]
  GI50: 2390 nM
  TGI: 6120 nM
[19]
  GI50: 754 nM
  TGI: > 100000 nM
[20]
  GI50: 641 nM
  TGI: 2040 nM
[21]
  GI50: 327 nM
  TGI: 1100 nM
[22]
  GI50: 2070 nM
  TGI: 4670 nM
[23]
  GI50: 2340 nM
  TGI: 5580 nM
[24]
  GI50: 327 nM
  TGI: 1390 nM
[25]
  GI50: 1810 nM
  TGI: 4180 nM
[26]
  GI50: 1220 nM
  TGI: 3730 nM
[27]
  GI50: 2600 nM
  TGI: 7840 nM
[28]
  GI50: 3520 nM
  TGI: 19800 nM
[29]
  GI50: 2350 nM
  TGI: 5670 nM
[30]
  GI50: 1960 nM
  TGI: 4560 nM
[31]
  GI50: 1950 nM
  TGI: 3980 nM
[32]
  GI50: 3280 nM
  TGI: 21100 nM
[33]
  GI50: 1850 nM
  TGI: 3470 nM
[34]
  GI50: 2240 nM
  TGI: 6380 nM
[35]
  GI50: 1890 nM
  TGI: 3830 nM
[36]
  GI50: 2470 nM
  TGI: 10800 nM
[37]
  GI50: 1850 nM
  TGI: 5460 nM
[38]
  GI50: 201 nM
  TGI: 772 nM
[39]
  GI50: 1630 nM
  TGI: 3110 nM
[40]
  GI50: 2200 nM
  TGI: 5520 nM
[42]
  GI50: 1760 nM
  TGI: 3300 nM
[43]
  GI50: 2880 nM
  TGI: 6390 nM
[44]
  GI50: 1800 nM
  TGI: 3350 nM
[45]
  GI50: 1360 nM
  TGI: 2670 nM
[46]
  GI50: 2220 nM
  TGI: 4710 nM
[47]
  GI50: 1590 nM
  TGI: 3160 nM
[48]
  GI50: 2080 nM
  TGI: 6310 nM
[49]
  GI50: 2600 nM
  TGI: 10700 nM
[50]
  GI50: 341 nM
  TGI: 3610 nM
[51]
  GI50: 487 nM
  TGI: 1740 nM
[52]
  GI50: 2820 nM
  TGI: 7970 nM
[53]
  GI50: 2870 nM
  TGI: 6990 nM
[54]
  GI50: 1190 nM
  TGI: 2550 nM
[55]
  GI50: 2860 nM
  TGI: 9650 nM
[56]
  GI50: 1610 nM
  TGI: 3390 nM
[57]
  GI50: 1530 nM
  TGI: 3070 nM
